Measurements reported in publication PMC10597491 (PLOS ONE, 2023).
Bridge positions count the residues as written; N and C are the ends. Peptide text beside a SMILES is read from it.

How the values were obtained:
[1] = molecular target: T1, IL-7R (Homo sapiens, UniProt P16871+P31785); experiment: STAT5 phosphorylation in TF1-7Rα cells; format: cell-based; conditions: TF1-7Rα cells, 10 μM peptide alone
T1 construct: constructed to express full-length human IL-7Rα in TF-1 cells; TF-1 cells, which naturally express γc, but not IL-7Rα; expressed in transfected cells
T1 sequence (P16871 21-459): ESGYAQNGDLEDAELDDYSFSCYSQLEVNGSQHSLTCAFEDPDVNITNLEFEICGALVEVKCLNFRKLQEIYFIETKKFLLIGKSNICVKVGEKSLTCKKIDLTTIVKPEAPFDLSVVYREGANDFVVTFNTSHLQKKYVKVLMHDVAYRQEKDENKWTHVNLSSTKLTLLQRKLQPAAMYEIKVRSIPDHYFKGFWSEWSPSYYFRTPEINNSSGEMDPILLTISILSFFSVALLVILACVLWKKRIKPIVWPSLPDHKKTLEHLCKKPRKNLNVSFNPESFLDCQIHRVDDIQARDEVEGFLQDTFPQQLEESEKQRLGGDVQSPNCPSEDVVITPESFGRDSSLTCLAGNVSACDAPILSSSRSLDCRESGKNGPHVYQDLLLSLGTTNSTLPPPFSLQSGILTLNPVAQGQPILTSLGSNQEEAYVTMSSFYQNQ
T1 sequence (P31785 23-369): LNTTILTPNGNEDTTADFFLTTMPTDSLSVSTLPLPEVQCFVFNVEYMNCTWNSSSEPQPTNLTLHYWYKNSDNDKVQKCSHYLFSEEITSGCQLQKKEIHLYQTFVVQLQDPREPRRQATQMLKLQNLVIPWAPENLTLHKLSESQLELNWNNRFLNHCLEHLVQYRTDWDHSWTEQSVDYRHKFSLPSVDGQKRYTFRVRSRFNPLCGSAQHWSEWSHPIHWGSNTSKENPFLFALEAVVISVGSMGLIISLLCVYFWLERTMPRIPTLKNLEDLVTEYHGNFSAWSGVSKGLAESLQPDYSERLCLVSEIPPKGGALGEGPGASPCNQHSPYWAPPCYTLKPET
Description: The synthetic peptide MDK1472 was designed to bind simultaneously to IL-7Rα and γc subunits and was tested for its ability to induce phosphorylation of STAT5, the primary IL-7R signaling pathway.
Reactions were stopped and cell lysates prepared for pSTAT5 analysis.
(§1) Cells were deprived of growth factors by overnight incubation at 5×10^5 cells/mL in starvation medium (RPMI 1640 + 4.5 g/L glucose + 0.2% FBS + 2 mM L-glutamine + 1 mM NaPyr + 10 mM HEPES + 0.5x penicillin-streptomycin with no cytokine supplement) in T75 flasks. For assays, cells were plated in 96-well V-bottom plates at 2×10^5 cells/well. Three-fold serial dilutions in starvation medium of the test compounds or cytokine were added to the cells and incubated for 30 min at 37°C. Following incubation, cell extracts were prepared by adding a mixture of 10x Cell Lysis Buffer (Cell Signaling Technology Cat# 9803) and 100x HALT Phosphatase and Protease Inhibitor Cocktail (Thermo Fisher Cat# 78442) directly to the wells. The plates were agitated at 25°C for 5 min to prepare cell extracts for immediate use or to be stored at -80°C until assay. Detection of pSTAT5 was performed using a PathScan® Phospho-Stat5 (pTyr694) Sandwich ELISA Kit (Cell Signaling Technology Cat# 7113). Detection of pSTAT6 was performed using a PathScan® Phospho-Stat6 (pTyr641) Sandwich ELISA Kit (Cell Signaling Technology Cat# 7275). Detection of pSTAT3 was performed using a PathScan® Phospho-Stat3 (pTyr705) Sandwich ELISA Kit (Cell Signaling Technology Cat# 7300). Cell lysates were added to pre-coated ELISA wells and incubated at 4°C overnight. Primary and secondary antibody incubations and wash steps were performed according to the protocols supplied by the manufacturer. Assays were developed using TMB substrate (Surmodics Cat# TMBW-1000-01) for 5–10 min at 25°C and the reaction was stopped using STOP solution (Surmodics Cat# LSTP-1000-01).

[2] = molecular target: T2, cynomolgus IL-7Rα (Macaca fascicularis, UniProt Q38IC7); experiment: Competition binding ELISA, cynomolgus IL-7Rα ECD; conditions: immobilized cynomolgus IL-7Rα-His6 ECD; biotinylated peptide/NA-HRP tracer; read-out: Competition ELISA IC50, IL-7Rα Cyno
T2 construct: cynomolgus IL-7Rα(aa 21–235)-His6, Sino Biological Cat# 90332-C08H; His6 (C); purchased Sino Biological 90332-C08H
T2 sequence (Q38IC7 21-235): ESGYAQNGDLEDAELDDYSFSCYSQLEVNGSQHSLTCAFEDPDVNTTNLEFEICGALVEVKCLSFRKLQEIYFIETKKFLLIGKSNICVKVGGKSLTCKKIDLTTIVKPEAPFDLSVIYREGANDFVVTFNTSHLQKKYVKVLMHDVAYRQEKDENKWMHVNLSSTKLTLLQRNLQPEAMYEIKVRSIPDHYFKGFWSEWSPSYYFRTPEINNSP
From the text: (§2) (A, B) Determination of IC50 values in a competition ELISA for compound binding to human and cyno IL-7Rα and γc. The assay format is IL-7Rα-(His)6-tagged ECD or Fc-γc ECD immobilized on 96-well plates. Tracers are C-terminal biotinylated forms of the reference IL-7Rα and γc peptide ligands, each pre-complexed with Neutravidin-HRP (NA-HRP). (C, D) Label-free measurement of the equilibrium dissociation constant (KD) for peptide binding to IL-7Rα and γc extracellular domains with peptides was performed by biolayer interferometry as detailed in methods. Red lines depict 1:1 binding fit from Gator™ software. Blue lines represent individual BLI sensogram data taken every 0.1 seconds.
(§3) Binding was determined using a competition binding ELISA. Microtiter plates (Immulon 4HBX flat bottom 96-well) were coated with 50 μL of […] human ECDs: IL-7Rα(aa 21–236)-His6, Sino Biological Cat# 10975-H08H; cynomolgus IL-7Rα(aa 21–235)-His6, Sino Biological Cat# 90332-C08H; human IL-2Rα(aa 23–254)-Fc, Acro Cat# ILG-H5256; cynomolgus IL-2Rα(aa 23–254)-Fc, made in-house, in PBS overnight at 4°C. […] Plates were washed with cold wash buffer, and bound tracer was detected using TMB One Component HRP substrate and Stop Solution (Surmodics Cat# TMBW-1000-01 and LSTP-0100-01). Absorbance at 450 nm was read using Agilent BioTek Synergy HTX Multimode Reader.

[3] = molecular target: T3, human IL-7Rα ECD (Homo sapiens, UniProt P16871); experiment: Competition binding ELISA, human IL-7Rα ECD; conditions: immobilized IL-7Rα-(His)6 ECD; tracer biotinylated MDK1248 pre-complexed with Neutravidin-HRP; 4°C; valency-sensitive format
T3 construct: IL-7Rα(aa 21–236)-His6, Sino Biological Cat# 10975-H08H; His6 (C); purchased Sino Biological 10975-H08H
T3 sequence (P16871 21-236): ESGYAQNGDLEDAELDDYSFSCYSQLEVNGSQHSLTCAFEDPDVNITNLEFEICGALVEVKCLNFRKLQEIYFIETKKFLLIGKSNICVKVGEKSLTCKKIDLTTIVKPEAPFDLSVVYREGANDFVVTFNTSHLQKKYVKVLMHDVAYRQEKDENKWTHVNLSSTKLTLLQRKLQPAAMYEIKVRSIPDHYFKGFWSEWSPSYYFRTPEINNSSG
From the text: as §2, §3

[4] = molecular target: T4, IL-2βγc receptor (Homo sapiens, UniProt P31785); experiment: IL-2-induced pSTAT5 in TF-1 cells expressing IL-2/15Rβ; format: cell-based
T4 construct: pcDNA3.1 expression vector encoding full-length IL-2Rβ, IL-7Rα, IL-9Rα, or IL-21Rα; TF-1 cells naturally express γc and IL-4Rα; expressed in transfected cells
T4 sequence (P31785 23-369): T1 sequence (P31785 23-369)
Description: as §1, with “Primary and secondary antibody incubations and wash steps were performed according to the protocols supplied by the manufacturer. Assays were developed using TMB substrate (Surmodics Cat# TMBW-1000-01) for 5–10 min at 25°C and the reaction was stopped using STOP solution (Surmodics Cat# LSTP-1000-01).” left out

[5] = molecular target: T5, human γc ECD (Homo sapiens, UniProt P31785); experiment: Competition binding ELISA, human γc ECD; conditions: immobilized Fc-γc ECD; tracer biotinylated MDK1188 pre-complexed with Neutravidin-HRP; 4°C
T5 construct: human IL-2Rα(aa 23–254)-Fc, Acro Cat# ILG-H5256; purchased Acro ILG-H5256
T5 sequence (P31785 23-254): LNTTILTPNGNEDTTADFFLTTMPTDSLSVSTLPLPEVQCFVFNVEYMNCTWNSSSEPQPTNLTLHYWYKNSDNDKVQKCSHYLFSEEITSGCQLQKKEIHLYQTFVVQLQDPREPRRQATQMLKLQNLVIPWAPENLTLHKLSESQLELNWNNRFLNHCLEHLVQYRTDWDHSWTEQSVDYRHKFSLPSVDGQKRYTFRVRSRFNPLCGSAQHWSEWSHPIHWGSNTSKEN
From the text: as §2, §3

Question: `CC[C@H](C)[C@H](NC(=O)CNC(=O)[C@H](Cc1c[nH]c2ccccc12)NC(=O)CN)C(=O)N1CCC[C@H]1C(=O)N[C@@H](Cc1c[nH]c2ccccc12)C(=O)N[C@H]1CSSC[C@@H](C(=O)N[C@@H](C)C(=O)N[C@@H](Cc2c[nH]c3ccccc23)C(=O)N[C@@H](CC(C)C)C(=O)NCC(=O)N[C@@H](CCCCN)C(=O)N[C@@H](Cc2c[nH]cn2)C(=O)NCC(=O)NCC(=O)O)NC(=O)[C@H](CCC(N)=O)NC(=O)[C@H](CC(C)C)NC(=O)[C@H](CO)NC(=O)CNC(=O)[C@@H]2CCCN2C(=O)[C@H](CC(=O)O)NC(=O)[C@H](CC(C)C)NC(=O)[C@H]([C@@H](C)O)NC1=O` [MDK1248] (H-GWGIPWCTLDPGSLQCAWLGKHGG-OH; disulfide 7-16) was tested. Which “induction of pSTAT5 by individual peptide ligands” value [1] did it give?
Answer: no induction of pSTAT5

Question: What about the IC50 [2] of the same molecule?
Answer: 0.092 µM

Question: What about the IC50 [3] of the same molecule?
Answer: 0.15 µM

Question: `CC(C)C[C@@H]1NC(=O)[C@H](CCC(=O)O)NC(=O)[C@H](C(C)C)NC(=O)CNC(=O)[C@H](CCC(=O)O)NC(=O)[C@H](Cc2c[nH]c3ccccc23)NC(=O)[C@H](CC(=O)O)NC(=O)[C@H](CCC(N)=O)NC(=O)[C@@H](NC(=O)[C@@H](NC(=O)[C@@H](NC(=O)CNC(=O)CN)C(C)C)C(C)C)CSSC[C@@H](C(=O)N[C@@H](Cc2c[nH]c3ccccc23)C(=O)N[C@@H](CCC(N)=O)C(=O)NCC(=O)NCC(=O)O)NC1=O` [MDK1188] was tested. Which IC50 [4] did it give?
Answer: 1.6 µM

Question: And the “induction of pSTAT5 by individual peptide ligands” value [1]?
Answer: no induction of pSTAT5

Question: And the IC50 [5]?
Answer: 0.024 µM
